Columns and labels:
Assay type in all cases: in vivo
[1] = tested on: giant foxtail (Setaria faberi); assay: Test G Pre-Emergence Protocol; conditions: Setaria faberi, pre-emergence, 312 h, evaluated after 13 days; for pest or weed control at 15.625 g/ha: 15.625 g ai/ha; for pest or weed control at 15.625 g/ha / pest or weed control at 250 g/ha: read-out: Foxtail, Giant damage rating (100=total damage to plant; 0=no damage to plant); for pest or weed control at 62.5 g/ha: 62.5 g ai/ha, 100=total damage to plant, 0=no damage to plant, read-out: plant damage rating, Foxtail, Giant; for pest or weed control at 250 g/ha: 250 g ai/ha
Protocol: (§1) Seeds of corn (Zea mays), giant foxtail (Setaria faberi), barnyardgrass (Echinochloa crus-galli), ivy-leaved morning glory (Ipomoea hederacea), redroot pigweed (Amaranthus retroflexus) and velvetleaf (Abutilon theophrasti) were sown in standard soil in pots. After cultivation for one day under controlled conditions in a glasshouse (at 24/16° C., day/night; 14 hours light; 65% humidity), the plants were sprayed with an aqueous spray solution derived from the formulation of the technical active ingredient in acetone/water (50:50) solution containing 0.5% Tween 20 (polyoxyethylene sorbitan monolaurate, CAS RN 9005-64-5) to give a final dose of 15.625, 62.5 or 250 g/ha of test compound.
(§2) The test plants were then grown on under controlled conditions in a glasshouse (at 24/16° C., day/night; 14 hours light; 65% humidity) and watered twice daily. After 13 days the test was evaluated (100=total damage to plant; 0=no damage to plant). A dash (-) means no test result.

[2] = tested on: ivy-leaved morning glory (Ipomoea hederacea); assay: Test G Pre-Emergence Protocol; conditions: Ipomoea, pre-emergence, 312 h, evaluated after 13 days; for pest or weed control at 15.625 g/ha: 15.625 g ai/ha, read-out: Morning-glory, Ivy-leaved damage rating (100=total damage to plant; 0=no damage to plant); for pest or weed control at 62.5 g/ha: 62.5 g ai/ha, 100=total damage to plant, 0=no damage to plant, read-out: plant damage rating, Morningglory, Ivy-leaved; for pest or weed control at 250 g/ha: 250 g ai/ha, read-out: Morningglory, Ivy-leaved damage rating (100=total damage to plant; 0=no damage to plant)
Protocol: as §1, §2

[3] = tested on: redroot pigweed (Amaranthus retroflexus); assay: Test G Pre-Emergence Protocol; conditions: Amaranthus retroflexus, pre-emergence, 312 h, evaluated after 13 days; for pest or weed control at 15.625 g/ha: 15.625 g ai/ha; for pest or weed control at 15.625 g/ha / pest or weed control at 250 g/ha: read-out: Pigweed, Redroot damage rating (100=total damage to plant; 0=no damage to plant); for pest or weed control at 62.5 g/ha: 62.5 g ai/ha, 100=total damage to plant, 0=no damage to plant, read-out: plant damage rating, Pigweed, Redroot; for pest or weed control at 250 g/ha: 250 g ai/ha
Protocol: as §1, §2

[4] = tested on: barnyardgrass (Echinochloa crus-galli); assay: Test G Pre-Emergence Protocol; conditions: Echinochloa crus-galli, pre-emergence, 312 h, evaluated after 13 days; for pest or weed control at 15.625 g/ha: 15.625 g ai/ha, read-out: Barnyard grass damage rating (100=total damage to plant; 0=no damage to plant); for pest or weed control at 62.5 g/ha: 62.5 g ai/ha, 100=total damage to plant, 0=no damage to plant, read-out: plant damage rating, Barnyardgrass; for pest or weed control at 250 g/ha: 250 g ai/ha, read-out: Barnyardgrass damage rating (100=total damage to plant; 0=no damage to plant)
Protocol: as §1, §2

[5] = tested on: velvetleaf (Abutilon theophrasti); assay: Test G Pre-Emergence Protocol; conditions: Abutilon theophrasti, pre-emergence, 312 h, evaluated after 13 days; for pest or weed control at 15.625 g/ha: 15.625 g ai/ha; for pest or weed control at 15.625 g/ha / pest or weed control at 250 g/ha: read-out: Velvetleaf damage rating (100=total damage to plant; 0=no damage to plant); for pest or weed control at 62.5 g/ha: 62.5 g ai/ha, 100=total damage to plant, 0=no damage to plant, read-out: plant damage rating, Velvetleaf; for pest or weed control at 250 g/ha: 250 g ai/ha
Protocol: as §1, §2

corn (Zea mays) = assay: Test G Post-Emergence Protocol; conditions: Zea mays, post-emergence, 312 h; for plant injury at 15.625 g/ha: 15.625 g ai/ha, evaluated after 13 days (100=total damage to plant; 0=no damage to plant), read-out: Corn damage rating; for plant injury at 62.5 g/ha: 62.5 g ai/ha, read-out: Corn damage rating (100=total damage to plant; 0=no damage to plant); for plant injury at 62.5 g/ha / plant injury at 250 g/ha: evaluated after 13 days; for plant injury at 250 g/ha: 250 g ai/ha, read-out: damage to plant, Corn (100=total damage to plant; 0=no damage to plant)
Protocol: as §1, with “8 days” for “one day”
as §2

[6] = tested on: giant foxtail (Setaria faberi); assay: Test G Post-Emergence Protocol; conditions: Setaria faberi, post-emergence, 312 h; for pest or weed control at 15.625 g/ha: 15.625 g ai/ha, evaluated after 13 days (100=total damage to plant; 0=no damage to plant), read-out: Foxtail, Giant damage rating; for pest or weed control at 62.5 g/ha: 62.5 g ai/ha, read-out: Foxtail, Giant damage rating (100=total damage to plant; 0=no damage to plant); for pest or weed control at 62.5 g/ha / pest or weed control at 250 g/ha: evaluated after 13 days; for pest or weed control at 250 g/ha: 250 g ai/ha, read-out: damage to plant, Foxtail, Giant (100=total damage to plant; 0=no damage to plant)
Protocol: as §1, with “8 days” for “one day”
as §2

[7] = tested on: ivy-leaved morning glory (Ipomoea hederacea); assay: Test G Post-Emergence Protocol; conditions: Ipomoea, post-emergence, 312 h; for pest or weed control at 15.625 g/ha: 15.625 g ai/ha, evaluated after 13 days (100=total damage to plant; 0=no damage to plant), read-out: Morningglory, Ivy-leaved damage rating; for pest or weed control at 62.5 g/ha: 62.5 g ai/ha, read-out: Morningglory, Ivy-leaved damage rating (100=total damage to plant; 0=no damage to plant); for pest or weed control at 62.5 g/ha / pest or weed control at 250 g/ha: evaluated after 13 days; for pest or weed control at 250 g/ha: 250 g ai/ha, read-out: damage to plant, Morningglory, Ivy-leaved (100=total damage to plant; 0=no damage to plant)
Protocol: as §1, with “8 days” for “one day”
as §2

[8] = tested on: redroot pigweed (Amaranthus retroflexus); assay: Test G Post-Emergence Protocol; conditions: Amaranthus retroflexus, post-emergence, 312 h; for pest or weed control at 15.625 g/ha: 15.625 g ai/ha, evaluated after 13 days (100=total damage to plant; 0=no damage to plant), read-out: Pigweed, Redroot damage rating; for pest or weed control at 62.5 g/ha: 62.5 g ai/ha, read-out: Pigweed, Redroot damage rating (100=total damage to plant; 0=no damage to plant); for pest or weed control at 62.5 g/ha / pest or weed control at 250 g/ha: evaluated after 13 days; for pest or weed control at 250 g/ha: 250 g ai/ha, read-out: damage to plant, Pigweed, Redroot (100=total damage to plant; 0=no damage to plant)
Protocol: as §1, with “8 days” for “one day”
as §2

[9] = tested on: velvetleaf (Abutilon theophrasti); assay: Test G Post-Emergence Protocol; conditions: Abutilon theophrasti, post-emergence, 312 h; for pest or weed control at 15.625 g/ha: 15.625 g ai/ha, evaluated after 13 days (100=total damage to plant; 0=no damage to plant), read-out: Velvetleaf damage rating; for pest or weed control at 62.5 g/ha: 62.5 g ai/ha, read-out: Velvetleaf damage rating (100=total damage to plant; 0=no damage to plant); for pest or weed control at 62.5 g/ha / pest or weed control at 250 g/ha: evaluated after 13 days; for pest or weed control at 250 g/ha: 250 g ai/ha, read-out: damage to plant, Velvetleaf (100=total damage to plant; 0=no damage to plant)
Protocol: as §1, with “8 days” for “one day”
as §2

[10] = tested on: green foxtail (Setaria viridis); assay: Test A preemergence; conditions: for Foxtail, Green plant response rating: 31 g ai/ha, 0 to 100 scale where 0 is no effect and 100 is complete control; for Plant response rating, Foxtail, Green: 125 g ai/ha, 0 to 100 scale (0 no effect, 100 complete control)
In short: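 Compounds were formulated in a non-phytotoxic solvent mixture with surfactant and applied as a preemergence directed soil spray after seeding, or sprayed postemergence over plants 2 to 10 cm tall at the one- to two-leaf stage. Evaluation after about 10 d compared treated with untreated controls, using a scale from 0 (no effect) to 100 (complete control).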

SMILES	pest or weed control at 15.625 g/ha [1]	pest or weed control at 62.5 g/ha [1]	pest or weed control at 250 g/ha [1]	pest or weed control at 15.625 g/ha [2]	pest or weed control at 62.5 g/ha [2]	pest or weed control at 250 g/ha [2]	pest or weed control at 15.625 g/ha [3]	pest or weed control at 62.5 g/ha [3]	pest or weed control at 250 g/ha [3]	pest or weed control at 15.625 g/ha [4]	pest or weed control at 62.5 g/ha [4]	pest or weed control at 250 g/ha [4]	pest or weed control at 15.625 g/ha [5]	pest or weed control at 62.5 g/ha [5]	pest or weed control at 250 g/ha [5]	plant injury at 15.625 g/ha (corn (Zea mays))	plant injury at 62.5 g/ha (corn (Zea mays))	plant injury at 250 g/ha (corn (Zea mays))	pest or weed control at 15.625 g/ha [6]	pest or weed control at 62.5 g/ha [6]	other results
CN1C[C@H](c2ccc(C(F)(F)F)cc2)[C@@H](C(=O)Nc2cccnc2F)C1=O [Compound 1396]	90%	90%	100%	0%	70%	70%	80%	80%	80%	80%	90%	90%	40%	70%	80%	70%	80%	70%	80%	80%	pest or weed control at 250 g/ha [6]: 80%; pest or weed control at 15.625 g/ha [7]: 40%; pest or weed control at 62.5 g/ha [7]: 60%; pest or weed control at 250 g/ha [7]: 60%; pest or weed control at 15.625 g/ha [8]: 70%; pest or weed control at 62.5 g/ha [8]: 70%; pest or weed control at 250 g/ha [8]: 80%; pest or weed control at 15.625 g/ha [9]: 40%; pest or weed control at 62.5 g/ha [9]: 30%; pest or weed control at 250 g/ha [9]: 60%
CN1C[C@H](c2csc3c2CCC(F)(F)C3)[C@@H](C(=O)Nc2cccc(F)c2F)C1=O (racemic) [Compound 1369]																					Foxtail, Green plant response rating [10]: 20; Plant response rating, Foxtail, Green [10]: 100
CN1C[C@H](c2ccc(Cl)cc2)[C@@H](C(=O)Nc2cccc(F)n2)C1=O [Compound 1399]	90%	90%	90%	0%	50%	60%	0%	30%	80%	0%	90%	90%	0%	40%	70%	0%	0%	30%	60%	80%	pest or weed control at 250 g/ha [6]: 80%; pest or weed control at 15.625 g/ha [7]: 10%; pest or weed control at 62.5 g/ha [7]: 30%; pest or weed control at 250 g/ha [7]: 70%; pest or weed control at 15.625 g/ha [8]: 0%; pest or weed control at 62.5 g/ha [8]: 20%; pest or weed control at 250 g/ha [8]: 60%; pest or weed control at 15.625 g/ha [9]: 0%; pest or weed control at 62.5 g/ha [9]: 40%; pest or weed control at 250 g/ha [9]: 40%
CN1C[C@H](c2csc3c2CCC(F)(F)C3)[C@@H](C(=O)Nc2ccc(F)c(F)c2F)C1=O (racemic) [Compound 1368]																					Foxtail, Green plant response rating [10]: 0; Plant response rating, Foxtail, Green [10]: 100

— patent US12077503B2, “Substituted cyclic amides and their use as herbicides” (FMC CORPORATION, priority 2015, dated 2024)
